Experimental data: US8691818B2, “Cyclic triazo and diazo sodium channel blockers” (University Of Greenwich, priority 2008, dated 2014)
Counter-ions that a name gives are not always drawn.

How the values were obtained:
sodium channel = assay: [14C]guanidine flux: veratrine-evoked uptake of [14C]guanidine into rat forebrain synaptosomes (primary sodium channel assay); format: biochemical; details: 30° for 2½ min
Procedure: The screening strategy is designed to select compounds with appropriate sodium channel blocking activity and low side effect liability. To this end all compounds are processed through the primary sodium channel assay (veratrine-evoked uptake of [^14C]guanidine into rat forebrain synaptosomes) and IC50 values computed from generated concentration-effect curves.
Experiments were performed using forebrain (whole brain less cerebellum/medulla) from Male Wistar rats weighing 175-250 g. All efforts were made to reduce the number of animals used and all experiments were carried out in accordance with the UK Animals (Scientific Procedures) Act, 1986 and the European Community Council Directive of 24 Nov. 1986 (86/609/EEC). Following killing of animals by stunning and decapitation, the forebrain (whole brain less cerebellum/medulla) was rapidly dissected and transferred to a weighed tube containing ice-cold 0.25M sucrose.
Synaptosomes (heavy and light mitochondrial fraction containing synaptosomes) were prepared by transferring the forebrain (of known wet weight) to a glass Potter vessel to which 9 volumes ice-cold 0.25M sucrose had been added and homogenising, using a teflon pestle, by 8 ‘up and down strokes’ of a Braun Potter S motor driven homogeniser set to 900 rpm. The resulting homogenate was centrifuged at 1036×g at 4° for 10 min and the supernatant collected. The remaining pellet was resuspended, as above, in fresh ice-cold 0.25M sucrose and the centrifugation step repeated. The supernatant fractions were pooled and centrifuged at 40,000×g (average) at 4° for 15 min and the resulting pellet resuspended in the appropriate assay buffer at a concentration of 20-25 mg wet weight per ml appropriate assay buffer.
Both assays were carried out using 14 ml polypropylene test tubes to which a range of concentrations of the compounds under test were added.
The [^14C] guanidinine flux assay was measured using the method of Pauwels P J et al (1986) but carried out@30° for 2½ min.
(§1) Data are presented as mean±sem of number of experiments indicated in brackets.

[1] = target: T1, DiHydroFolate Reductase (DHFR) (Rattus norvegicus, UniProt Q920D2); assay: Inhibition of binding of [3H]methotrexate to rat liver homogenate supernatant; details: for inhibition at 125 µM: read-out: [3H]mtx binding (% inhibition @ 125 μM)
T1 construct: from tissue; host or cells: rat liver homogenate supernatant
T1 sequence (Q920D2 1-187): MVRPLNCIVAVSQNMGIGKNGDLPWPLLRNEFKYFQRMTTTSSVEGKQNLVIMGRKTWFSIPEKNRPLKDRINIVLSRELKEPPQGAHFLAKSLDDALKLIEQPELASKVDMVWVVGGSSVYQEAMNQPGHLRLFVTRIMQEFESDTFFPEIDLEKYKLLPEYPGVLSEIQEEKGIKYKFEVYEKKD
Procedure: All steps were carried out at 4° (or on ice). Freshly dissected rat liver was dissected into 0.25M ice-cold Sucrose and subsequently homogenised (U-turrax) in 50 mM pH 6.0 phosphate buffer (10 ml/g tissue) containing 15 mM Dithiothreitol. The resulting homogenate was centrifuged@47,500×g for 20 min and supernatant (filtered through cotton wool to remove fatty lumps) stored @ −80° before use (Rothenberg et al).
Inhibition of the binding of [^3H]methotrexate to rat liver homogenate supernatant fractions were carried out essentially as described by Arons et al, 1975.
as §1

Structure (SMILES) | IC50 (sodium channel) [µM] | inhibition at 125 µM [1] [%] | melting point | inhibition at 99 µM ([1]; read-out: [3H]mtx binding % inhibition (* 99 μM, *** uses fresh batch of supernatant), 99 μM, fresh batch of supernatant) [%]
Nc1nnc(-c2cc(Br)c(Br)o2)c(N)n1 [CEN-121, 3,5-Diamino-6-[2-(4,5-dibromofuryl)]-1,2,4-triazine] | > 1000 | 92 | 272 to 275 °C | 
Nc1nnc(-c2ccccc2-c2ccccc2)c(N)n1 [CEN-74, 3,5-Diamino-6-(2-biphenyl)-1,2,4-triazine] | 295 | 99 | 222 to 224 °C | 
Nc1nnc(-c2cc(C(F)(F)F)ccc2Cl)c(N)n1 [CEN-169, 3,5-Diamino-6-(2-chloro 5 trifluoromethylphenyl)-1,2,4-triazine] | 347 | 95 | 238 to 239 °C | 
Nc1nnc(-c2ccc3cc(Br)ccc3c2)c(N)n1 [CEN-96] | 110 | 105 | 260 to 262 °C | 
Nc1nnc(-c2c3ccccc3cc3ccccc23)c(N)n1 [CEN-118, 6-(9-Anthracenyl)-3,5-diamino-1,2,4-triazine] | 1150 | -7 | 350 to 352 °C | 
Nc1nnc(C2(c3ccc(Cl)cc3)CCCCC2)c(N)n1 [CEN-145, 3,5-Diamino-6-[1-(4-chlorophenyl)-1-cyclohexyl]-1,2,4-triazine] | 9.6 | 39 | 205 to 207 °C | 
COc1ccc(-c2nnc(N)nc2N)cc1OC [CEN-115, 3,5-Diamino-6-(3,4-dimethoxyphenyl)-1,2,4-triazine] | > 1000 | 61 | 288 to 290 °C | 
Nc1nnc(-c2cccc(Br)c2)c(N)n1 [CEN-69, 3,5-Diamino-6-(3-bromophenyl)-1,2,4-triazine] | 776 | 66 | 221 to 222 °C | 
Nc1nnc(-c2ccc3c(c2)OCO3)c(N)n1 [CEN-103, 3,5-Diamino-6-(3,4-methylenedioxyphenyl)-1,2,4-triazine] | > 1000 | 47 | 217 to 218 °C | 
Nc1nnc(-c2cc(Cl)cc(C(F)(F)F)c2)c(N)n1 [CEN-172, 3,5-Diamino-6-(3-chloro-5-trifluoromethylphenyl)-1,2,4-triazine] | 234 | 100 | 249 to 251 °C | 
Nc1cnc(-c2ccc3ccccc3c2)c(N)n1 [CEN-88, 2,6-Diamino-3-(2-naphthyl)pyrazine] | 190 | 82 | 163 to 165 °C | 
Nc1nnc(-c2ccccc2Oc2ccccc2)c(N)n1 [CEN-97, 3,5-Diamino-6-(2-phenoxphenyl)-1,2,4-triazine] | 363 | 101 | 200 to 202 °C | 
Nc1nnc(-c2ccsc2)c(N)n1 [CEN-64, 3,5-Diamino-6-(3-thienyl)-1,2,4-triazine] | > 2000 | 52 | 199 to 201 °C | 
Nc1nnc(-c2ccccc2Br)c(N)n1 [CEN-68, 3,5-Diamino-6-(2-bromophenyl)-1,2,4-triazine] | 794 | 101 | 198 to 200 °C | 
Nc1nnc(-c2c(Cl)cccc2Cl)c(N)n1 [CEN-104, 3,5-Diamino-6-(2,6-dichlorophenyl)-1,2,4-triazine] | > 1000 | 23 | 160 to 162 °C | 
Nc1nnc(-c2cc(OCC(F)(F)F)cc(OCC(F)(F)F)c2)c(N)n1 [CEN-193, 3,5-Diamino-6-[3,5-bis(2,2,2-trifluoroethoxy)phenyl]-1,2,4-triazine] | 135 |  | 185 to 187 °C | 99
Nc1nnc(C(c2ccccc2)(c2ccccc2)c2ccccc2)c(N)n1 [CEN-153, 3,5-Diamino-6-(triphenylmethy)-1,2,4-triazine] | 50.1 | 2 | 124 to 126 °C | 
CC(c1ccccc1)(c1ccccc1)c1nnc(N)nc1N [CEN-147, 3,5-Diamino-6-(1,1-diphenylethyl)-1,2,4-triazine] | 60.3 | 4 | 197 to 199 °C | 

Structure (SMILES) | IC50 (sodium channel) [µM] | inhibition at 125 µM [1] [%] | melting point | inhibition at 99 µM ([1]; read-out: [3H]mtx binding % inhibition (* 99 μM, *** uses fresh batch of supernatant), 99 μM, fresh batch of supernatant) [%]
COc1cc(-c2nnc(N)nc2N)c(OC)c2ccccc12 [CEN-151] | 67.6 | 76 | 142 to 144 °C | 
Nc1nnc(-c2cccc(-c3ccccc3)c2)c(N)n1 [CEN-159, 3,5-Diamino-6-(3-phenylphenyl)-1,2,4-triazine] | 44 | 97 | 215 to 217 °C (dec.) | 
CCOc1cc2ccccc2cc1-c1nnc(N)nc1N [CEN-141] | 288 | 30 | 212 to 214 °C | 
Nc1nnc(-c2cccc(OCc3c(Cl)cccc3Cl)c2)c(N)n1 [CEN-185, 3,5-Diamino-6-[3-(2,6-dichlorobenzyloxy)phenyl]-1,2,4-triazine] | 3 | 90 | 190 to 192 °C | 
COc1ccc2cc(OC)c(-c3nnc(N)nc3N)cc2c1 [CEN-143] | > 2000 | 27 | 274 to 276 °C | 
Nc1nnc(-c2ccccc2OC(F)F)c(N)n1 [CEN-142] | > 2000 | 12 | 154 to 155 °C | 
Nc1nnc(-c2ccc3c(c2)OCCO3)c(N)n1 [CEN-109, 3,5-Diamino-6-(3,4-ethylenedioxyphenyl)-1,2,4-triazine] | > 1000 | 80 | 220 to 222 °C | 
COc1cc2ccccc2cc1-c1nnc(N)nc1N [CEN-139] | 288 | 46 | 252 to 254 °C | 
Nc1nnc(-c2cccs2)c(N)n1 [CEN-57, 3,5-Diamino-6-(2-thienyl)-1,2,4-triazine] | > 2000 | 44 | 271 to 272 °C (dec.) | 
Nc1nnc(-c2sc3ccccc3c2Cl)c(N)n1 [CEN-114, 3,5-Diamino-6-[2-(3-chlorobenzo[b]thiophenyl)]-1,2,4-triazine] | 174 | 46 | 318 to 320 °C | 
Nc1nnc(-c2cc(Br)c(Br)s2)c(N)n1 [CEN-122, 3,5-Diamino-6-[2-(4,5-dibromothienyl)]-1,2,4-triazine] | > 1000 | 86 | 318 to 320 °C | 
Nc1nnc(-c2cccc3ccccc23)c(N)n1 [CEN-72, 6-(1-Naphthyl)-1,2,4-triazine-3,5-diamine] | 132 | 101 | 194 to 196 °C | 
Nc1nnc(-c2cc(Cl)sc2Cl)c(N)n1 [CEN-71, 3,5-Diamino-6-[3-(2,5 dichlorothienyl)]-1,2,4-triazine] | 513 | 54 | 190 to 192 °C | 
Nc1nnc(-c2ccc(Br)s2)c(N)n1 [CEN-124, 3,5-Diamino-6-[2-(5-bromothienyl)]-1,2,4-triazine] | 871 | 90 | 265 to 268 °C | 
CC(C)(C)c1ccc(-c2nnc(N)nc2N)cc1 [CEN-181, 3,5-Diamino-6-(4-tertbutylphenyl)-1,2,4-triazine] | 74 | 101 | 275 to 276 °C | 
CCn1nc(-c2cccc(C(F)(F)F)c2Cl)c(N)nc1=N (as salt: methanesulphonate) [CEN-178, 5(3)-Amino-6-(2-chloro-3-trifluoromethyphenyl)-2,3(2,5)-dihydro-3(5)-imino-2-ethyl-1,2,4-triazine methanesulphonate] |  |  | 207 to 209 °C | 
Cn1nc(-c2cc(C(F)(F)F)cc(Cl)c2F)c(N)nc1=N (as salt: mesylate) [CEN-202, 5(3)-Amino-6-(3-chloro-2-fluoro-5-trifluoromethyphenyl)-2,3(2,5)-dihydro-3(5)-imino-2-methyl-1,2,4-triazine mesylate] |  |  | 277 to 279 °C | 
